Source: ChEMBL document CHEMBL5370584, “Reprogramming Energy Metabolism with Synthesized PDK Inhibitors Based on Dichloroacetate Derivatives and Targeted Delivery Systems for Enhanced Cancer Therapy” (J Med Chem, 2023)
Calls of active or inactive are those of the source. The calls are words filed in the database; no cut-off is given here.

Assays:
[1] = Toxicity in BALB/c mouse assessed as effect on liver at 0.15 to 1.5 mg/kg measured upto 16 days; type: organism-based; conditions: in vivo, 384 h, dose 0.15-1.5 mg/kg, time < 16 day
[2] = Toxicity in BALB/c mouse assessed as effect on spleen at 0.15 to 1.5 mg/kg measured upto 16 days; type: organism-based; conditions: in vivo, 384 h, dose 0.15-1.5 mg/kg, time < 16 day
[3] = target: [Pyruvate dehydrogenase (acetyl-transferring)] kinase isozyme 3, mitochondrial (Mus musculus) (UniProt Q922H2); test: Inhibition of PDK3 transcription in mouse 4T1 cells at 4 uM incubated for 24 hrs by qPCR analysis; type: cell-based
[4] = Toxicity in BALB/c mouse assessed as effect on CREA level at 0.15 to 1.5 mg/kg measured upto 16 days; type: organism-based; conditions: in vivo, 384 h, dose 0.15-1.5 mg/kg, time < 16 day
4T1 [5] = test: Induction of apoptosis in mouse 4T1 cells assessed as increase in Bax expression at 4 uM incubated for 24 hrs; type: functional, cell-based
MOLM-13 = test: Antiproliferative activity against human MOLM-13 cells assessed as inhibition of cell growth incubated for 24 hrs by MTT assay; type: functional, cell-based; conditions: MOLM-13, 24 h
[6] = Antiproliferative activity against rat PBMC cells assessed as inhibition of cell growth at 5 uM incubated for 24 hrs by MTT assay; type: toxicity, cell-based
[7] = Toxicity in BALB/c mouse assessed as effect on kidney at 0.15 to 1.5 mg/kg measured upto 16 days; type: organism-based; conditions: in vivo, 384 h, dose 0.15-1.5 mg/kg, time < 16 day
HeLa = test: Antiproliferative activity against human HeLa cells assessed as inhibition of cell growth incubated for 24 hrs by MTT assay; type: functional, cell-based
4T1 [8] = test: Induction of apoptosis in mouse 4T1 cells assessed as increase in GSH content at 1 to 2 uM measured after 12 to 24 hrs; type: functional, cell-based; conditions: dose 1-2 µM, time 12-24 hrs
COS-7 [9] = test: Effect on PDK1 expression in African monkey COS7 cells at 12 uM measured after 24 hrs; type: functional, cell-based; conditions: Chlorocebus aethiops
NB-4 = test: Antiproliferative activity against human NB4 cells assessed as inhibition of cell growth incubated for 24 hrs by MTT assay; type: functional, cell-based; conditions: NB-4, 24 h
4T1 [10] = test: Downregulation of c-myc expression in mouse 4T1 cells at 4 uM incubated for 24 hrs; type: functional, cell-based
4T1 [11] = test: Inhibition of glycolysis in mouse 4T1 cell lysates assessed as reduction in extracellular acidification rate at 2 to 6 uM measured after 6 hrs; type: functional, cell-based; conditions: dose 2-6 µM
4T1 [12] = test: Recovery in mitochondrial function in mouse 4T1 cells assessed as increase in OCR/ECAR ratio; type: functional, cell-based; conditions: dose 2-6 µM
COS-7 [13] = test: Effect on PDK4 expression in African monkey COS7 cells at 12 uM measured after 24 hrs; type: functional, cell-based; conditions: Chlorocebus aethiops
[14] = target: [Pyruvate dehydrogenase (acetyl-transferring)] kinase isozyme 2, mitochondrial (Mus musculus) (UniProt Q9JK42); test: Inhibition of PDK2 transcription in mouse 4T1 cells at 4 uM incubated for 24 hrs by qPCR analysis; type: cell-based

Sequence of [Pyruvate dehydrogenase (acetyl-transferring)] kinase isozyme 3, mitochondrial (Mus musculus) (Q922H2 whole entry): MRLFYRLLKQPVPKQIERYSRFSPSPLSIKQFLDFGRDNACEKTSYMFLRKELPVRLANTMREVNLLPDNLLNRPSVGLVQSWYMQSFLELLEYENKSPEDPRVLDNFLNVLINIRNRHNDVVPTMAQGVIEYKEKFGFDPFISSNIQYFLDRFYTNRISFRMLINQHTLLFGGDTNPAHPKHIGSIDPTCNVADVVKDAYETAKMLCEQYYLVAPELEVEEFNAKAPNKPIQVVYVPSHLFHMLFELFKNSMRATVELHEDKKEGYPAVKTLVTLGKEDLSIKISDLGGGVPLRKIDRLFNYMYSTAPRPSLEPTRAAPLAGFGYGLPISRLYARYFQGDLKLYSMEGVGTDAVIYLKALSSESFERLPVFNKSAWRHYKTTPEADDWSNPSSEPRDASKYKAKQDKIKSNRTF

O=C(CCCCCNC(=O)C(Cl)Cl)Nc1ccc([As]2SCCCS2)cc1
Activity [1]: Non-Toxic
Activity [2]: Non-Toxic
inhibition [3]: Active
Activity [4]: Non-Toxic
Activity (4T1 [5]): Active
IC50 (MOLM-13): 1350 nM
Activity [6]: Non-Toxic
Activity [7]: Non-Toxic
IC50 (HeLa): 2500 nM
Activity (4T1 [8]): Active
Activity (COS-7 [9]): inactive
IC50 (NB-4): 1720 nM
Activity (4T1 [10]): Active
inhibition (4T1 [11]): Active
Activity (4T1 [12]): Dose-Dependent Effect
Activity (COS-7 [13]): inactive
inhibition [14]: Active
